Here are results for two molecules from US20250040935A1, “FABRICATION OF RADIOPAQUE RESORBABLE HYDROGEL BEADS VIA MICROFLUIDICS FOR CATHETER EMBOLIZATION APPLICATIONS” (Saint Louis University, priority 2023, published 2025).

Holding throughout (format): physicochemical
The nature of series [1]: Apalutamide and docetaxel microsphere release study. The conditions noted are these: within the first 24 hrs; microspheres, PEG and 20% w/v 1 μm BaSO4 groups. Here is the method: Barium microspheres (20% w/v) were fabricated using the T-junction and then frozen overnight at −80 degrees Celsius. The next morning the microspheres were lyophilized for 1 day. Once the microspheres were fully lyophilized, they were then swollen in 10 μL 0.5 mg/mL docetaxel and apalutamide for 1 day. The next day, the excess drug was removed from the centrifuge tube and 500 μL 80:20 ethanol to DI water was added. A release study was then preformed as described above and the release profile for 20% barium microspheres was obtained.

The nature of series [2]: Apalutamide and docetaxel bulk release from hydrogels. The conditions noted are these: after 24 h; from both PEG-only and 20% BaSO4 hydrogel.
Experimental: To determine bulk release of drugs from hydrogels, acridine orange (AO), docetaxel, bicalutamide, and apalutamide release into a sink volume was measured. Samples from the sink volume were taken over time and then the amount of sample volume that was taken out was replaced with the same amount of sink solution. The sink solution for AO experiments was PBS and the sink solution used for docetaxel, bicalutamide, and apalutamide was 80:20 ethanol to DI water. The absorbance of each sample solution was measured to calculate the concentration of drug in the sample solution. The equation used to calculate these concentrations was from the standard curves obtained for each drug or acridine orange (AO). The concentrations of drugs or AO in solution allowed for quantifying each drug release profile as well as their diffusion coefficient from a hydrogel. Apalutamide (0.5 mg/mL) stock solution was prepared in 80:20 DMSO or ethanol and DI water. A standard curve was constructed for apalutamide by creating samples of known concentrations and measuring the absorbance at 260 nm of each sample. Hydrogels were then fabricated with conditions: PEG+Doc+Apa and PEG+BaSO4+Doc+Apa (Table 6). […] Absorbances of 230 nm and 260 nm were measured for each sample to be able to obtain concentrations of docetaxel and apalutamide released into solution.
The nature of series [3]: Docetaxel release from PEG gels/microspheres (Example 1). The conditions noted are these: in the first 60 minutes, loaded at 0.1 mg/ml, released in 20:80 anhydrous ethanol:di-water. The protocol: Docetaxel release and in vivo efficacy. Docetaxel was released from the PEG microspheres over several hours, with 60% released in the first 60 minutes (FIG. 2A). For bulk release experiments, docetaxel was dissolved in anhydrous ethanol, loaded in PEG gels at 0.1 mg/ml and released in a 20:80 anhydrous ethanol:di-water. Release was followed by absorbance measurements at 220 nm. […] PC3 cells (2×10^6 cells) were injected and grown to ˜120 mm^3 tumor volume prior to treatment.

For the molecule `CNC(=O)c1ccc(N2C(=S)N(c3cnc(C#N)c(C(F)(F)F)c3)C(=O)C23CCC3)cc1F` [Apalutamide], the initial burst release in series [1] was roughly 80%.

As to `CC(=O)O[C@@]12CO[C@@H]1C[C@H](O)[C@@]1(C)C(=O)[C@H](O)C3=C(C)[C@@H](OC(=O)[C@H](O)[C@@H](NC(=O)OC(C)(C)C)c4ccccc4)C[C@@](O)([C@@H](OC(=O)c4ccccc4)[C@H]21)C3(C)C` [Docetaxel], the drug released in series [2] was roughly 90%. Also, in series [1], the initial burst release is given as roughly 90%. Besides, the docetaxel released in series [3] came out at 60%.
